Source: US3957999A, “Anilinobenzothiazoles as antidepressants” (The Boots Company, priority 1974, dated 1976)

How the values were obtained:
Assay type in all cases: in vivo
rabbits = experiment: teratogenicity in rabbits; conditions: similar dosage levels
rats = experiment: teratogenicity in rats; conditions: similar dosage levels
[1] = tested on: reserpine-induced hypothermia; experiment: reversal of reserpine-induced hypothermia test in mice (antireserpine activity); conditions: Mus musculus, Shadbolt et al., read-out: ED50 (median effective dose)
Method: A test to evaluate this property was carried out with the compounds of formula I (R = H or CH3 O). The test was carried out in mice as described by Shadbolt et al. in J. Med. Chem. vol. 14 p.837 (1971), and the following results were obtained.

cats = experiment: amphetamine-like stereotyped reactions in cats (amphetamine-like CNS stimulant activity); conditions: for amphetamine-like stereotyped reactions: cats, comparative tests at similar dosage levels

| SMILES | teratogenicity (rabbits) | teratogenicity (rats) | ED50 [1] | amphetamine-like CNS stimulant activity (cats; as shown by stereotyped reactions in cats) | amphetamine-like stereotyped reactions (cats) |
| --- | --- | --- | --- | --- | --- |
| c1ccc2oc(Nc3ccc(OCCN4CCCC4)cc3)nc2c1 [2-[4-(2-pyrrolidin-1-ylethoxy)anilino]benzoxazole] | markedly teratogenic | markedly teratogenic |  |  |  |
| c1ccc2sc(Nc3ccc(OCCN4CCCC4)cc3)nc2c1 [compound I, R=hydrogen, 2-[4-(2-pyrrolidin-1-ylethoxy)anilino]benzothiazole] |  | no evidence of teratogenicity | 3.7 mg/kg |  |  |
| CCN(CC)CCOc1ccc(Nc2nc3ccccc3s2)cc1 [2-[4-(2-diethylaminoethoxy)anilino]benzothiazole] |  |  |  | undesirably high level of amphetamine-like CNS stimulant activity | produces amphetaminelike stereotyped reactions |
| COc1ccc2sc(Nc3ccc(OCCN4CCCC4)cc3)nc2c1 [compound I, R=methoxy, 5-methoxy-2-[4-(2-pyrrolidin-1-ylethoxy)anilino]benzothiazole] | no evidence of teratogenicity | no evidence of teratogenicity | 3.1 mg/kg |  |  |
| c1ccc2sc(Nc3ccc(OCCN4CCCCC4)cc3)nc2c1 [2-[4-(2-piperidin-1-ylethoxy)anilino]benzothiazole] |  |  |  |  | causes amphetamine-like stereotyped reactions |
